Molecules are shown by their SMILES. Where two headings read alike, the source gives them in different places.

As usually defined, the Ki is a measure of affinity in units of concentration, obtained from inhibition or displacement. The term inhibition denotes the relative decrease from the control value, in per cent.

Assay [1] concerns the target T1, type II dehydroquinase from Streptomyces coelicolor (Streptomyces coelicolor, UniProt P15474). The conditions noted are these: cited from earlier work.
A further assay addresses H. pylori DHQase. The arrangement: method as in PMID 16480265. The conditions noted are these: HTS hit; read-out: Ki against H. pylori DHQase; cited from earlier work.
For assay [2], the target named is T2, type II dehydroquinase from Mycobacterium tuberculosis (Mycobacterium tuberculosis, UniProt P9WPX7). Conditions: search template RP4, known optimized inhibitor; reference not given, probably ref 33; read-out: Ki (Mtb; μM); cited from earlier work.
For assay [3], the target named is T1, type II dehydroquinase from Streptomyces coelicolor. In words: S. coelicolor DHQase enzyme inhibition in vitro. Format: biochemical. An excerpt: (§1) The next step was to purchase the compounds highlighted by these protocols to test them in vitro against M. tuberculosis DHQase and S. coelicolor DHQase. With the modest budget assigned to this proof of concept (£5000), we could purchase 148 compounds (full details on this process can be found in electronic supplementary material, Materials and methods). Tables 1 and 2 show the performance of each virtual screening protocol against each target (all IC50 measurements are included in the electronic supplementary material). […]. […].
(§2) In order to assess the overall hit rate and potency of these inhibitors, we calculated their inhibition constant (Ki) as explained in electronic supplementary material, Materials and methods (see table 3 for a summary). This is necessary to have a more accurate comparison with hit rates in the literature and with the potency of previously known inhibitors. […]. a total of 40 inhibitors) being noticeably higher than that for M. tuberculosis DHQase (23.6%; 35 inhibitors). […]. This difference might be due to the fact that our protocols are primarily exploiting crystal structures for S. coelicolor DHQase. […].

The target in assay [4] is T2, type II dehydroquinase from Mycobacterium tuberculosis. In words: M. tuberculosis DHQase enzyme inhibition in vitro. Format: biochemical. Conditions: Ki calculated from measured IC50, read-out: Ki (Mtb; μM).
Source text: as §1, §2

T2 sequence (P9WPX7 whole entry): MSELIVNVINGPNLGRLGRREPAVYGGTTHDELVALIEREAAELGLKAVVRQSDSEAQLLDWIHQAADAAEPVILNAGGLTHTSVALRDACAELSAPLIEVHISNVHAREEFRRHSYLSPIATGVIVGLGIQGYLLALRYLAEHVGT
T1 sequence (P15474 whole entry): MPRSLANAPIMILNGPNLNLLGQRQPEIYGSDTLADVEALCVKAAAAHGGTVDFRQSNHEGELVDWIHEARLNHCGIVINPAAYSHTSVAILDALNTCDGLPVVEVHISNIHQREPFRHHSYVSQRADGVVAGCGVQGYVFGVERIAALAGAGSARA

As for `O=C(O)[C@]1(O)C[C@H](CCCOc2ccccc2)[C@@H](O)[C@H](O)C1` [CA2], the inhibition constant Ki in assay [1] (read-out: measured Ki (2BT4 ligand)) was 33 µM.

Take `O=c1c2ccccc2oc2ccc(S(=O)(=O)N=c3[nH]nn[nH]3)cc12` [GAJ]: the Ki on H. pylori DHQase is 20 µM.

For `O=C(O)[C@]1(O)C=C(c2cccc(Sc3ccccc3)c2)[C@@H](O)[C@H](O)C1` [RP4], the Ki was 0.07 µM in assay [1] (read-out: Ki (Sc; μM), search template RP4, known optimized inhibitor) and 0.38 µM in assay [2].

The compound `O=C(O)[C@H](Cc1ccccc1)N1C(=O)/C(=C/c2cccc3ccccc23)SC1=S` [ZINC00978022] yielded a Ki in assay [3] of 4 µM.

For the compound `CC(C)N(C(=O)COC(=O)c1ccc(N)c([N+](=O)[O-])c1)C(C)C` [ZINC05657290], the results for the Ki in assay [3] and in assay [4] were 201 µM and 192 µM, respectively.

For `CCOC(=O)C1=C(CSc2nc3ccccc3[nH]2)NC(=O)N[C@H]1C` [ZINC06024496], the results for the Ki in assay [3] and in assay [4] were 174 µM and 159 µM, respectively.

Consider `CC[C@H](C)NC(=O)c1ccccc1NC(=O)Cc1ccccc1` [ZINC10025084], for which the results for the Ki in assay [3] and in assay [4] were 148 µM and 167 µM, respectively.

As to `CC[C@H](C)NC(=O)c1ccccc1NC(=O)Cc1c(F)cccc1Cl` [ZINC15608616], the Ki is 149 µM in assay [3] and 150 µM in assay [4].

As for `COc1ccc(CC(=O)Nc2cc(C(F)(F)F)ccc2N(C)C)cc1F` [ZINC18086350], the inhibition at 224 µM in assay [3] (read-out: inhibition of S. coelicolor DHQase) was found to be 45%. In addition, in assay [4], the Ki is 166 µM.

As for `O=C(Cn1nc2ccccn2c1=O)N(Cc1cccs1)Cc1cccs1` [ZINC24469052], affinity in assay [3] was put at a Ki of 21 µM.

The values above are taken from paper PMC3481598, “Hierarchical virtual screening for the discovery of new molecular scaffolds in antibacterial hit identification” (Journal of the Royal Society Interface, 2012).
